Measured values from ChEMBL document CHEMBL1131216, “Anhydrolide macrolides. 2. Synthesis and antibacterial activity of 2,3-anhydro-6-O-methyl 11,12-carbazate erythromycin A analogues” (1998).
In brackets after ≈: the same amount, converted by molar mass.

What was measured:
Type in all cases: functional
Streptococcus pyogenes [1] = test: In vitro antibacterial activity of PIU2584 strain of Gram positive bacteria Streptococcus pyogenes
Streptococcus pneumoniae [2] = test: In vitro antibacterial activity of ATCC 6303 strain of Gram positive bacteria Streptococcus pneumoniae
Staphylococcus aureus [3] = test: In vitro antibacterial activity of A5177 strain of Gram positive bacteria Staphylococcus aureus
Staphylococcus aureus [4] = test: In vitro antibacterial activity of A-5278 strain of Gram positive bacteria Staphylococcus aureus
Streptococcus pyogenes [5] = test: In vitro antibacterial activity of EES61 strain of Gram positive bacteria Streptococcus pyogenes
Streptococcus pneumoniae [6] = test: In vitro antibacterial activity of 5649 strain of Gram positive bacteria Streptococcus pneumoniae
Haemophilus influenzae = test: In vitro antibacterial activity of DILL strain of Gram negative bacteria Haemophilus influenzae
Streptococcus pneumoniae [7] = test: In vitro antibacterial activity of 5979 strain of Gram positive bacteria Streptococcus pneumoniae
Streptococcus pyogenes [8] = test: In vitro antibacterial activity of 930 strain of Gram positive bacteria Streptococcus pyogenes
Staphylococcus aureus [9] = test: In vitro antibacterial activity of 6538P strain of Gram positive bacteria Staphylococcus aureus

SMILES | MIC (Streptococcus pyogenes [1]) | MIC (Streptococcus pneumoniae [2]) | MIC (Staphylococcus aureus [3]) | MIC (Staphylococcus aureus [4]) | MIC (Streptococcus pyogenes [5]) | MIC (Streptococcus pneumoniae [6]) | MIC (Haemophilus influenzae) | MIC (Streptococcus pneumoniae [7]) | MIC (Streptococcus pyogenes [8]) | MIC (Staphylococcus aureus [9])
CC[C@H]1OC(=O)/C(C)=C/[C@H](C)[C@@H](O[C@@H]2O[C@H](C)C[C@H](N(C)C)[C@H]2O)[C@@](C)(OC)C[C@@H](C)C(=O)[C@H](C)[C@H]2N(NCCCn3nc4ccccc4n3)C(=O)O[C@]12C | 1 µg/mL (≈ 1.3 µM) | 0.004 µg/mL (≈ 0.00519 µM) | 0.2 µg/mL (≈ 0.259 µM) | > 100 µg/mL | 0.004 µg/mL (≈ 0.00519 µM) | 0.5 µg/mL (≈ 0.649 µM) | 8 µg/mL (≈ 10.4 µM) | > 128 µg/mL | 128 µg/mL (≈ 166 µM) | 0.2 µg/mL (≈ 0.259 µM)
CC[C@H]1OC(=O)/C(C)=C/[C@H](C)[C@@H](O[C@@H]2O[C@H](C)C[C@H](N(C)C)[C@H]2O)[C@@](C)(OC)C[C@@H](C)C(=O)[C@H](C)[C@H]2N(NCCCc3ccccc3O)C(=O)O[C@]12C | 2 µg/mL (≈ 2.68 µM) | 0.03 µg/mL (≈ 0.0402 µM) | 0.2 µg/mL (≈ 0.268 µM) | > 100 µg/mL | 0.03 µg/mL (≈ 0.0402 µM) | 2 µg/mL (≈ 2.68 µM) | 16 µg/mL (≈ 21.4 µM) | > 128 µg/mL | > 128 µg/mL | 0.2 µg/mL (≈ 0.268 µM)
CC[C@H]1OC(=O)/C(C)=C/[C@H](C)[C@@H](O[C@@H]2O[C@H](C)C[C@H](N(C)C)[C@H]2O)[C@@](C)(OC)C[C@@H](C)C(=O)[C@H](C)[C@H]2N(NCCCc3ccc([N+](=O)[O-])cc3)C(=O)O[C@]12C | 1 µg/mL (≈ 1.29 µM) | 0.03 µg/mL (≈ 0.0387 µM) | 0.1 µg/mL (≈ 0.129 µM) | > 100 µg/mL | 0.03 µg/mL (≈ 0.0387 µM) | 1 µg/mL (≈ 1.29 µM) | 8 µg/mL (≈ 10.3 µM) | 64 µg/mL (≈ 82.6 µM) | 64 µg/mL (≈ 82.6 µM) | 0.1 µg/mL (≈ 0.129 µM)
CC[C@H]1OC(=O)/C(C)=C/[C@H](C)[C@@H](O[C@@H]2O[C@H](C)C[C@H](N(C)C)[C@H]2O)[C@@](C)(OC)C[C@@H](C)C(=O)[C@H](C)[C@H]2N(NCc3ccccn3)C(=O)O[C@]12C | 1 µg/mL (≈ 1.42 µM) | 0.06 µg/mL (≈ 0.0854 µM) | 0.39 µg/mL (≈ 0.555 µM) | > 100 µg/mL | 0.06 µg/mL (≈ 0.0854 µM) | 1 µg/mL (≈ 1.42 µM) | 8 µg/mL (≈ 11.4 µM) | > 128 µg/mL | > 128 µg/mL | 0.39 µg/mL (≈ 0.555 µM)
CC[C@H]1OC(=O)/C(C)=C/[C@H](C)[C@@H](O[C@@H]2O[C@H](C)C[C@H](N(C)C)[C@H]2O)[C@@](C)(OC)C[C@@H](C)C(=O)[C@H](C)[C@H]2N(NCc3ccc(C#N)cc3)C(=O)O[C@]12C | 0.5 µg/mL (≈ 0.688 µM) | 0.03 µg/mL (≈ 0.0413 µM) | 0.02 µg/mL (≈ 0.0275 µM) | > 100 µg/mL | 0.015 µg/mL (≈ 0.0206 µM) | 0.5 µg/mL (≈ 0.688 µM) | 4 µg/mL (≈ 5.5 µM) | > 128 µg/mL | 128 µg/mL (≈ 176 µM) | 0.05 µg/mL (≈ 0.0688 µM)
CC[C@H]1OC(=O)/C(C)=C/[C@H](C)[C@@H](O[C@@H]2O[C@H](C)C[C@H](N(C)C)[C@H]2O)[C@@](C)(OC)C[C@@H](C)C(=O)[C@H](C)[C@H]2N(NCc3ccc(OC)cc3)C(=O)O[C@]12C | 1 µg/mL (≈ 1.37 µM) | 0.125 µg/mL (≈ 0.171 µM) | 0.2 µg/mL (≈ 0.273 µM) | > 100 µg/mL | 0.03 µg/mL (≈ 0.041 µM) | 2 µg/mL (≈ 2.73 µM) | 8 µg/mL (≈ 10.9 µM) | > 64 µg/mL | > 64 µg/mL | 0.2 µg/mL (≈ 0.273 µM)
CC[C@H]1OC(=O)/C(C)=C/[C@H](C)[C@@H](O[C@@H]2O[C@H](C)C[C@H](N(C)C)[C@H]2O)[C@@](C)(OC)C[C@@H](C)C(=O)[C@H](C)[C@H]2N(NCc3ccc(Cl)cc3)C(=O)O[C@]12C | 1 µg/mL (≈ 1.36 µM) | 0.06 µg/mL (≈ 0.0815 µM) | 0.2 µg/mL (≈ 0.272 µM) | 100 µg/mL (≈ 136 µM) | 0.03 µg/mL (≈ 0.0407 µM) | 1 µg/mL (≈ 1.36 µM) | 16 µg/mL (≈ 21.7 µM) | 32 µg/mL (≈ 43.5 µM) | 32 µg/mL (≈ 43.5 µM) | 0.2 µg/mL (≈ 0.272 µM)
CC[C@H]1OC(=O)/C(C)=C/[C@H](C)[C@@H](O[C@@H]2O[C@H](C)C[C@H](N(C)C)[C@H]2O)[C@@](C)(OC)C[C@@H](C)C(=O)[C@@H](C)[C@H]2N(NC/C=C/c3ccccc3)C(=O)O[C@]12C | 8 µg/mL (≈ 11 µM) | 1 µg/mL (≈ 1.37 µM) | 6.2 µg/mL (≈ 8.52 µM) | 50 µg/mL (≈ 68.7 µM) | 4 µg/mL (≈ 5.49 µM) | 4 µg/mL (≈ 5.49 µM) | > 64 µg/mL | 16 µg/mL (≈ 22 µM) | 16 µg/mL (≈ 22 µM) | 12.5 µg/mL (≈ 17.2 µM)
CC[C@H]1OC(=O)/C(C)=C/[C@H](C)[C@@H](O[C@@H]2O[C@H](C)C[C@H](N(C)C)[C@H]2O)[C@@](C)(OC)C[C@@H](C)C(=O)[C@H](C)[C@H]2N(NCc3ccccc3)C(=O)O[C@]12C | 1 µg/mL (≈ 1.42 µM) | 0.06 µg/mL (≈ 0.0855 µM) | 0.2 µg/mL (≈ 0.285 µM) | > 100 µg/mL | 0.03 µg/mL (≈ 0.0427 µM) | 1 µg/mL (≈ 1.42 µM) | 8 µg/mL (≈ 11.4 µM) | > 64 µg/mL | > 64 µg/mL | 0.39 µg/mL (≈ 0.556 µM)
CC[C@H]1OC(=O)/C(C)=C/[C@H](C)[C@@H](O[C@@H]2O[C@H](C)C[C@H](N(C)C)[C@H]2O)[C@@](C)(OC)C[C@@H](C)C(=O)[C@H](C)[C@H]2N(NCc3ccc([N+](=O)[O-])cc3)C(=O)O[C@]12C | 1 µg/mL (≈ 1.34 µM) | 0.03 µg/mL (≈ 0.0402 µM) | 0.05 µg/mL (≈ 0.0669 µM) | > 100 µg/mL | 0.03 µg/mL (≈ 0.0402 µM) | 1 µg/mL (≈ 1.34 µM) | 8 µg/mL (≈ 10.7 µM) | > 128 µg/mL | 128 µg/mL (≈ 171 µM) | 0.05 µg/mL (≈ 0.0669 µM)
